Values after ≈ are worked out from the molar mass of the structure shown.
Each compound was assayed on A549 (assay: Cytotoxicity against Homo sapiens (human) A549 cells assessed as cell viability by MTT assay).
Format: functional, cell-based

| Structure (SMILES) | IC50 [µg/mL] |
| --- | --- |
| O=c1c(-c2nnc(-c3ccccc3)o2)cn(C2CC2)c2cc(N3CCNCC3)c(F)cc12 | 46 (≈ 107 µM) |
| O=c1c(-c2nnc(-c3ccc([N+](=O)[O-])cc3)o2)cn(C2CC2)c2cc(N3CCNCC3)c(F)cc12 | 8 (≈ 16.8 µM) |
| O=c1c(-c2nnc(-c3ccc(Nc4ccccc4)cc3)o2)cn(C2CC2)c2cc(N3CCNCC3)c(F)cc12 | 52 (≈ 99.5 µM) |
| O=c1c(-c2nnc(COc3ccc4ccccc4c3)o2)cn(C2CC2)c2cc(N3CCNCC3)c(F)cc12 | 16 (≈ 31.3 µM) |
| O=c1c(-c2nnc(COc3cccc4ccccc34)o2)cn(C2CC2)c2cc(N3CCNCC3)c(F)cc12 | 96.2 (≈ 188 µM) |
| O=c1c(-c2nnc(Cc3ccccc3)o2)cn(C2CC2)c2cc(N3CCNCC3)c(F)cc12 | 86 (≈ 193 µM) |
| O=c1c(-c2nnc(COc3ccccc3)o2)cn(C2CC2)c2cc(N3CCNCC3)c(F)cc12 | 48.6 (≈ 105 µM) |
| CCn1cc(-c2nnc(-c3ccccc3)o2)c(=O)c2cc(F)c(N3CCNCC3)cc21 | 112 (≈ 267 µM) |
| CCn1cc(-c2nnc(-c3ccc([N+](=O)[O-])cc3)o2)c(=O)c2cc(F)c(N3CCNCC3)cc21 | 74.3 (≈ 160 µM) |
| CCn1cc(-c2nnc(-c3ccc(Nc4ccccc4)cc3)o2)c(=O)c2cc(F)c(N3CCNCC3)cc21 | 88.6 (≈ 174 µM) |
| CCn1cc(-c2nnc(COc3ccc4ccccc4c3)o2)c(=O)c2cc(F)c(N3CCNCC3)cc21 | 80.2 (≈ 161 µM) |
| CCn1cc(-c2nnc(COc3cccc4ccccc34)o2)c(=O)c2cc(F)c(N3CCNCC3)cc21 | 127 (≈ 254 µM) |
| CCn1cc(-c2nnc(Cc3ccccc3)o2)c(=O)c2cc(F)c(N3CCNCC3)cc21 | 118 (≈ 273 µM) |
| CCn1cc(-c2nnc(COc3ccccc3)o2)c(=O)c2cc(F)c(N3CCNCC3)cc21 | 76.8 (≈ 171 µM) |
| CN(C)/N=N/c1[nH]cnc1C(N)=O [DACARBAZINE] | 35 (≈ 192 µM) |
